Assay results: patent US5198533A, “LHRH antagonists” (The Administrators of the Tulane Educational Fund, priority 1988, dated 1993)
Where a SMILES comes first, the peptide text is derived from it. [ ]: non-standard residue; d: D form. dPhe(4-Cl) = N[C@H](Cc1ccc(Cl)cc1)C(=O)O; d2Nal = N[C@H](Cc1ccc2ccccc2c1)C(=O)O; dCit = NC(=O)NCCC[C@@H](N)C(=O)O; d3Pal = N[C@H](Cc1cccnc1)C(=O)O

Test system: edema of the face and extremities
Assay: edematogenic test of Schmidt, et al.
Format: in vivo, rat
Settings: 1.5 mg/kg s.c. once a day on two consecutive days
Procedure: In the edematogenic test of Schmidt, et al. (Contraception, 29, 283-289, 1984), however, a marked difference can be found between the control peptides and the peptides of the present invention. The control […] 1.50 mg/kg. No such reaction can be observed with the peptides of the present invention when given at a subcutaneous dose of 1.5 mg/kg.
In the tests as run, the rats were assigned to three groups of […] per group per compound tested. Comparison was made with a known prior art compound designated ORG 30276 namely (N-Ac-D-p-Cl-Phe^1,2,D-Trp^3,D-Arg^6,D-Ala^10)-LHRH. The groups were injected subcuntaneously once a day on two consecutive days with the LHRH antagonists at a dose level of 1.5 mg/kg. One control group was injected with diluent only. The rats were observed during five hours each day. Reactions of the rats were classified as follows: NR no apparent reaction, PR partial responders: edema of the nasal and paranasal area, FR full responders: facial edema with edematous extremities.

## CC(=O)N[C@H](Cc1ccc2ccccc2c1)C(=O)N[C@H](Cc1ccc(Cl)cc1)C(=O)N[C@H](Cc1cccnc1)C(=O)N[C@@H](CO)C(=O)N[C@@H](Cc1ccc(O)cc1)C(=O)N[C@H](CCCNC(N)=O)C(=O)N[C@@H](CC(C)C)C(=O)N[C@@H](CCCNC(=N)N)C(=O)N1CCC[C@H]1C(=O)N[C@H](C)C(N)=O [EX XXVI, Ac-D-Nal-D-Phe(4-Cl)-D-Pal(3)-Ser-Tyr-D-Cit-Leu-Arg-Pro-D-AlaNH2] (Ac-[d2Nal][dPhe(4-Cl)][d3Pal]SY[dCit]LRP[dA]-NH2)
* = very light edema of the face
  2nd Day PR (number of rats, partial responders: edema of the nasal and paranasal area): 0
Observed five hours each day
  1st Day FR (number of rats, full responders: facial edema with edematous extremities): 0
  1st Day NR (number of rats, no apparent reaction): 8
  1st Day PR (number of rats, partial responders: edema of the nasal and paranasal area): 0
  2nd Day FR (number of rats, full responders: facial edema with edematous extremities): 0
  2nd Day NR (number of rats, no apparent reaction): 8
